These results are taken from patent US20210070748A1, “INHIBITORS OF BRUTONS TYROSINE KINASE” (Pharmacyclics LLC, priority 2015, published 2021).

Format in all cases: biochemical
For one test, the target named is LCK (Homo sapiens, UniProt P06239). Put plainly: Inhibition of a panel of kinases, in vitro HotSpot kinase assay: LCK. Conditions: D-compounds panel data; 1 μM ATP; read-out: IC50 LCK.
A further test addresses SRC (Homo sapiens, UniProt P12931). Put plainly: Inhibition of a panel of kinases, in vitro HotSpot kinase assay: SRC. As to conditions: D-compounds panel data; 1 μM ATP. As to the method: (§1) The degree of inhibition of a panel of kinases is determined using the in vitro HotSpot kinase assay (purified enzymes, ^33P-ATP, an appropriate substrate and 1 μM ATP).
The next test has as its target T1, BTK-WT (Homo sapiens, UniProt Q06187).
T1 construct: purified from insect cells as a full-length construct containing an N-terminal 6X-His tag; His6 (N); made in house; host or cells: insect cells (baculovirus Sf21 in Method B)
As to the kind of experiment: Btk in vitro inhibitory activity (one of Method A TR-FRET, Method B electrophoretic mobility shift, Method C radiometric filter binding). As to conditions: D-compounds panel data; read-out: IC50 BTK-WT. On the technique in general: A gel shift assay detects complexes by their altered migration in electrophoresis.

Another test deals with T2, ITK (Homo sapiens, UniProt Q08881).
T2 sequence (Q08881 1-620): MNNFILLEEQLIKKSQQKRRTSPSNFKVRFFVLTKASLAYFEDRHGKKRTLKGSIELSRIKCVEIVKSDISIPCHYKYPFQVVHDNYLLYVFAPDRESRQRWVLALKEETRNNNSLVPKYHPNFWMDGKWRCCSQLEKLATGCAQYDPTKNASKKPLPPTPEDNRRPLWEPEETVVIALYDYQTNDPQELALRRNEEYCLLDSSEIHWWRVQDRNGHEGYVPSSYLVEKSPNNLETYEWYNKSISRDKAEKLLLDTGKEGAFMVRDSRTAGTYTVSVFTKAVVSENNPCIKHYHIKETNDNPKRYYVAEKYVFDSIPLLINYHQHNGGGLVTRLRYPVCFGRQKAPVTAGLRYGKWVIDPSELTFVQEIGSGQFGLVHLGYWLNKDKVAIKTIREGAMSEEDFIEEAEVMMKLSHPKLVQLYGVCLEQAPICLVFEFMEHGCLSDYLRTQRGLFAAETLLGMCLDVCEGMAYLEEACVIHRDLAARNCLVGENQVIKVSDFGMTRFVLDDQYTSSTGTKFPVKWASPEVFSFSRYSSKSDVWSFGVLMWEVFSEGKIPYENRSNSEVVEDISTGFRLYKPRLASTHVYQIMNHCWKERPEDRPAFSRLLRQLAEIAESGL
Put plainly: Inhibition of a panel of kinases, in vitro HotSpot kinase assay: ITK. As to conditions: D-compounds panel data; 1 μM ATP. As to the method:
as §1

The target in a further test is EGFR (Homo sapiens, UniProt P00533). Put plainly: Inhibition of a panel of kinases, in vitro HotSpot kinase assay: EGFR. Conditions: D-compounds panel data; 1 μM ATP. As to the method: as §1
Chain of EGFR (P00533 25-1210): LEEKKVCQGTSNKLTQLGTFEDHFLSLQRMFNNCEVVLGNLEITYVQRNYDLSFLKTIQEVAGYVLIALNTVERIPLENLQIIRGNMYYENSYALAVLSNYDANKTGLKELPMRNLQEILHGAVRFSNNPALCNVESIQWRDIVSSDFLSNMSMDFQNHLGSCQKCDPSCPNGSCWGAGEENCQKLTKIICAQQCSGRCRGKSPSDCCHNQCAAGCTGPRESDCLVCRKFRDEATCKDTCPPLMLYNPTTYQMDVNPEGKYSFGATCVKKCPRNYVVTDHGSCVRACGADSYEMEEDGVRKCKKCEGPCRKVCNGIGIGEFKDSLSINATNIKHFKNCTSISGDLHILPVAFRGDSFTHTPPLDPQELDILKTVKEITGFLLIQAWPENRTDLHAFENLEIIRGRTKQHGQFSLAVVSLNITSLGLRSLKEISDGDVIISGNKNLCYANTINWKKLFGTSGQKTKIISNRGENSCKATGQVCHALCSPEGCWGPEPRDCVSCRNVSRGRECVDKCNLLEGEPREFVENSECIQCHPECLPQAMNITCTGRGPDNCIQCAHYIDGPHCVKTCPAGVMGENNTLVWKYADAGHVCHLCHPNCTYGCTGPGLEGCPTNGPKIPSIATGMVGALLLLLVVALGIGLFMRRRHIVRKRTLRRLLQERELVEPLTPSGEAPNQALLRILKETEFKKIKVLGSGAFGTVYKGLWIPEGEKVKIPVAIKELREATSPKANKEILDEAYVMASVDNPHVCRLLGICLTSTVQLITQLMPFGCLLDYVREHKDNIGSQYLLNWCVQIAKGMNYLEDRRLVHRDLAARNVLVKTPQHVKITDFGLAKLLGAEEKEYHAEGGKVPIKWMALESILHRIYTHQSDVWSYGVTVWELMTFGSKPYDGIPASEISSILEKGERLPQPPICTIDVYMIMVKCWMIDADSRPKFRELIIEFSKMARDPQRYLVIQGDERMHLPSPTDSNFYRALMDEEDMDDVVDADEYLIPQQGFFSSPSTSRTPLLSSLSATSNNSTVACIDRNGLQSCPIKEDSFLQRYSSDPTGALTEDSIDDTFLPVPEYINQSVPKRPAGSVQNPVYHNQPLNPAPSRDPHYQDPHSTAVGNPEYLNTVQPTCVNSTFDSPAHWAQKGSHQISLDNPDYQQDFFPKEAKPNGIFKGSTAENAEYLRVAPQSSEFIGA

Chain of LCK (P06239 whole entry): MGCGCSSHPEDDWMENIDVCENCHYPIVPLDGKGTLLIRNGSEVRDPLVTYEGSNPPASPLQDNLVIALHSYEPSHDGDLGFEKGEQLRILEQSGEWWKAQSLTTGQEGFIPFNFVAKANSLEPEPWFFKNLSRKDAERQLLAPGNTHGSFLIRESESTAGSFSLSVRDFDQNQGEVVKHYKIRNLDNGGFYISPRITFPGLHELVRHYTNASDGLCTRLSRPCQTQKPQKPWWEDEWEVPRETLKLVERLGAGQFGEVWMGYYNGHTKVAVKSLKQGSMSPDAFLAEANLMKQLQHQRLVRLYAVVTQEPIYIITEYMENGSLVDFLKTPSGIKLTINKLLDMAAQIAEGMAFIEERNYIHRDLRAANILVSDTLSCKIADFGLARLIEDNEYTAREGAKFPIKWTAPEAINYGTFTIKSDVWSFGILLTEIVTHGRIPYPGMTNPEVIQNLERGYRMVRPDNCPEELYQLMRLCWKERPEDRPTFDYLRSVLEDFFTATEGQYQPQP
Chain of SRC (P12931 whole entry): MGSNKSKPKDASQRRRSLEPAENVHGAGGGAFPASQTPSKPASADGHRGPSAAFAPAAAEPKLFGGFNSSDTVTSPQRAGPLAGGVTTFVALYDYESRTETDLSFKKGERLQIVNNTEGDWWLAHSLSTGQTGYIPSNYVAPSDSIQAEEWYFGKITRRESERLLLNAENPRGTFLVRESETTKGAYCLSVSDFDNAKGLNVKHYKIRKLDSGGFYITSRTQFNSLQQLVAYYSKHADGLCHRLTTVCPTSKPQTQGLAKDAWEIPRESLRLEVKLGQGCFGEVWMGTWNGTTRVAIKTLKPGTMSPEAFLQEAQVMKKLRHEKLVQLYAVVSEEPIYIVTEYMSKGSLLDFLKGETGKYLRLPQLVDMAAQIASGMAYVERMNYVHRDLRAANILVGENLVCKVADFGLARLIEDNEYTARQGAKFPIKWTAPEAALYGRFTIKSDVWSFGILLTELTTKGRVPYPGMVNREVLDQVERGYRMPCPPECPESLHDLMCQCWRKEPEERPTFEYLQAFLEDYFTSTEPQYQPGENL
T1 sequence (Q06187 whole entry): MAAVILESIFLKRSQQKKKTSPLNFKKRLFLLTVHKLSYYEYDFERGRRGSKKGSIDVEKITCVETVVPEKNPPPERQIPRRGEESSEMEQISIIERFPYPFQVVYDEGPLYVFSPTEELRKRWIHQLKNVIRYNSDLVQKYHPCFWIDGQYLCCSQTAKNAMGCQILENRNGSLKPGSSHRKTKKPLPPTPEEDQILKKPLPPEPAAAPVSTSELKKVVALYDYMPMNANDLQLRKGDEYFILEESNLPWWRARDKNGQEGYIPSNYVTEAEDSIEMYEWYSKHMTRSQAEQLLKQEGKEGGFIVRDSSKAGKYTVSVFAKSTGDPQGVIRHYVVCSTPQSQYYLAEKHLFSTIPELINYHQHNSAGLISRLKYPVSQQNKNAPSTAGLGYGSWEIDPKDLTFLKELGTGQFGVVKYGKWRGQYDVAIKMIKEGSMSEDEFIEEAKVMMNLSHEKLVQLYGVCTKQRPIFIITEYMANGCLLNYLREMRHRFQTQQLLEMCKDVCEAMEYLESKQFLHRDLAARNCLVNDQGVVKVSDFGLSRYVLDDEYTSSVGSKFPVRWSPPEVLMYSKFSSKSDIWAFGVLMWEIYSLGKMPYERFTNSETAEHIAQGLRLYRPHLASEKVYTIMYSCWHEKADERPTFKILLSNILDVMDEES

By IC50 is commonly meant the concentration that gives 50% inhibition. Turning to `C[C@H]1CC[C@@H](NC(=O)c2ccc(C(C)(C)O)cc2)CN1c1cnc(C(N)=O)c(Nc2cnn(C)c2)n1` [Example D-236, 5-[(2S,5R)-5-[4-(2-hydroxypropan-2-yl)benzamido]-2-methylpiperidin-1-yl]-3-[(1-methyl-1H-pyrazol-4-yl)amino]pyrazine-2-carboxamide], the 50% inhibitory concentration (IC50) is 0.01 to 0.1 µM on LCK; 0.01 to 0.1 µM against SRC; ≤ 0.01 µM on BTK-WT; 0.1 to 1 µM at ITK; 0.1 to 1 µM against EGFR.
Regarding `Cn1cc(Nc2nc(N3C[C@@H](NC(=O)c4ccc(C5CC5)cc4)CC(F)(F)C3)cnc2C(N)=O)cn1` [Example D-189, 5-[(5S)-5-(4-cyclopropylbenzamido)-3,3-difluoropiperidin-1-yl]-3-[(1-methyl-1H-pyrazol-4-yl)amino]pyrazine-2-carboxamide], the IC50 on LCK is > 10 µM; on SRC it was > 10 µM; at BTK-WT it was 0.1 to 1 µM; against ITK it was > 10 µM; at EGFR, 1 to 10 µM.
For the compound `C[C@@H]1[C@H](NC(=O)c2ccc(C3CC3)cc2F)CCCN1c1cnc(C(N)=O)c(Nc2cc(CN3CCCCC3)ns2)n1` [Example D-176, 5-[(2R,3R)-3-(4-cyclopropyl-2-fluorobenzamido)-2-methylpiperidin-1-yl]-3-{[3-(piperidin-1-ylmethyl)-1,2-thiazol-5-yl]amino}pyrazine-2-carboxamide], the IC50 on LCK is 0.01 to 0.1 µM; on SRC it was 0.01 to 0.1 µM; at BTK-WT, ≤ 0.01 µM; at ITK it was 0.1 to 1 µM; against EGFR it was > 10 µM.
As for `CN1CCN(c2ccc(Nc3nc(N4CCC[C@@H](n5ccc6cc(C7CC7)ccc6c5=O)C4)cnc3C(N)=O)nc2)CC1` [Example D-179, 5-[(3R)-3-(6-cyclopropyl-1-oxo-1,2-dihydroisoquinolin-2-yl)piperidin-1-yl]-3-{[5-(4-methylpiperazin-1-yl)pyridin-2-yl]amino}pyrazine-2-carboxamide], the IC50 was > 10 µM on LCK; > 10 µM at SRC; 0.1 to 1 µM at BTK-WT; 1 to 10 µM against ITK; > 10 µM against EGFR.
In the case of `C[C@@H]1[C@H](NC(=O)c2ccc3c(cnn3C)c2)CCCN1c1cnc(C(N)=O)c(Nc2ccc(N3CCN(C)CC3)cc2)n1` [Example D-234, N-[(2R,3R)-1-(5-carbamoyl-6-{[4-(4-methylpiperazin-1-yl)phenyl]amino}pyrazin-2-yl)-2-methylpiperidin-3-yl]-1-methyl-1H-indazole-5-carboxamide], the concentration for half-maximal inhibition (IC50) on LCK is 0.01 to 0.1 µM; at SRC, 0.01 to 0.1 µM; on BTK-WT, ≤ 0.01 µM; at ITK it was 0.01 to 0.1 µM; on EGFR, 0.1 to 1 µM.
With `Cc1ccc(C(=O)N[C@@H]2CCCN(c3cnc(C(N)=O)c(Nc4cnn(C)c4)n3)[C@@H]2C)cc1` [Example D-232, 3-[(1-methyl-1H-pyrazol-4-yl)amino]-5-[(2R,3R)-2-methyl-3-(4-methylbenzamido)piperidin-1-yl]pyrazine-2-carboxamide], the IC50 on LCK is 0.01 to 0.1 µM; at SRC, 0.01 to 0.1 µM; at BTK-WT, ≤ 0.01 µM; against ITK, 0.1 to 1 µM; at EGFR, 1 to 10 µM.
For `C[C@@H]1[C@H](NC(=O)c2ccc(C3CC3)cc2)CCCN1c1cnc(C(N)=O)c(Nc2cnn(C)c2)c1` [Example D-207, 5-[(2R,3R)-3-(4-cyclopropylbenzamido)-2-methylpiperidin-1-yl]-3-[(1-methyl-1H-pyrazol-4-yl)amino]pyridine-2-carboxamide], the IC50 at LCK is 0.1 to 1 µM; against SRC it was 0.1 to 1 µM; at BTK-WT it was ≤ 0.01 µM; at ITK, 1 to 10 µM; on EGFR, > 10 µM.
Take `C[C@@H]1[C@H](NC(=O)c2ccc3scnc3c2)CCCN1c1cnc(C(N)=O)c(Nc2ccc(N3CCN(C)CC3)cc2)n1` [Example D-226, N-[(2R,3R)-1-(5-carbamoyl-6-{[4-(4-methylpiperazin-1-yl)phenyl]amino}pyrazin-2-yl)-2-methylpiperidin-3-yl]-1,3-benzothiazole-5-carboxamide]: the IC50 at LCK is 0.01 to 0.1 µM; against SRC, ≤ 0.01 µM; on BTK-WT, ≤ 0.01 µM; against ITK, 0.01 to 0.1 µM; against EGFR, 0.1 to 1 µM.
Turning to `C[C@@H]1[C@H](NC(=O)c2ccc3scnc3c2)CCCN1c1cnc(C(N)=O)c(Nc2cnn(C)c2)n1` [Example D-237, N-[(2R,3R)-1-{5-carbamoyl-6-[(1-methyl-1H-pyrazol-4-yl)amino]pyrazin-2-yl}-2-methylpiperidin-3-yl]-1,3-benzothiazole-5-carboxamide], the concentration for half-maximal inhibition (IC50) at LCK is 0.01 to 0.1 µM; at SRC, 0.01 to 0.1 µM; on BTK-WT, ≤ 0.01 µM; against ITK, 0.1 to 1 µM; on EGFR, 1 to 10 µM.
Turning to `C[C@@H]1[C@H](NC(=O)c2ccc(C3(O)CC3)cc2)CCCN1c1cnc(C(N)=O)c(Nc2cnn(C)c2)n1` [Example D-235, 5-[(2R,3R)-3-[4-(1-hydroxycyclopropyl)benzamido]-2-methylpiperidin-1-yl]-3-[(1-methyl-1H-pyrazol-4-yl)amino]pyrazine-2-carboxamide], the IC50 at LCK is 0.1 to 1 µM; on SRC, 0.01 to 0.1 µM; at BTK-WT, ≤ 0.01 µM; at ITK it was 0.1 to 1 µM; at EGFR, 0.1 to 1 µM.
As for `Cc1cc(Nc2nc(N3CCC[C@H](c4ncc(-c5ccccc5)[nH]4)C3)cnc2C(N)=O)sn1` [Example D-172, 3-[(3-methyl-1,2-thiazol-5-yl)amino]-5-[(3S)-3-(5-phenyl-1H-imidazol-2-yl)piperidin-1-yl]pyrazine-2-carboxamide], the IC50 was 0.1 to 1 µM on LCK; 0.1 to 1 µM at SRC; 0.01 to 0.1 µM at BTK-WT; > 10 µM on ITK; 0.01 to 0.1 µM on EGFR.
On to `C[C@@H]1[C@H](NC(=O)c2ccc(C(C)(C)C)s2)CCCN1c1cnc(C(N)=O)c(Nc2cnn(C)c2)n1` [Example D-229, 5-[(2R,3R)-3-(5-tert-butylthiophene-2-amido)-2-methylpiperidin-1-yl]-3-[(1-methyl-1H-pyrazol-4-yl)amino]pyrazine-2-carboxamide], for which the IC50 on LCK was 0.01 to 0.1 µM; against SRC, 0.1 to 1 µM; at BTK-WT, ≤ 0.01 µM; against ITK, 1 to 10 µM; at EGFR it was 1 to 10 µM.
Take `Cn1cc(Nc2nc(N3C4CCC(NC(=O)c5ccc(C6CC6)cc5)C3CC4)cnc2C(N)=O)cn1` (single isomer, unassigned) [Example D-200, 5-[2-(4-cyclopropylbenzamido)-8-azabicyclo[32.1]octan-8-yl]-3-[(1-methyl-1H-pyrazol-4-yl)amino]pyrazine-2-carboxamide]: the IC50 on LCK was 1 to 10 µM; at SRC, 1 to 10 µM; on BTK-WT, 0.1 to 1 µM; against ITK, > 10 µM; against EGFR, 1 to 10 µM.
On to `Cn1cc(Nc2nc(N3CCC(F)(F)[C@H](NC(=O)c4ccc(C5CC5)cc4)C3)cnc2C(N)=O)cn1` [Example D-192, 5-[(3R)-3-(4-cyclopropylbenzamido)-4,4-difluoropiperidin-1-yl]-3-[(1-methyl-1H-pyrazol-4-yl)amino]pyrazine-2-carboxamide], for which the 50% inhibitory concentration (IC50) at LCK was > 10 µM; on SRC, 1 to 10 µM; on BTK-WT, 1 to 10 µM; at ITK, 1 to 10 µM; on EGFR, > 10 µM.
